Patent publication US6596755B2 (Dabur Research Foundation, priority 2001, dated 2003)

Key:
[1] = system: Molt 4 Leukemia; experiment: three day MTT cytotoxicity assay, Molt 4; format: cell-based, human; conditions: Standard (DMSO control), 72 hours
Experimental: (§1) Briefly, a three day MTT cytotoxicity assay was performed, which is based on the principle of uptake of MTT (3-(4,5-dimethylthiazol-2-yl)-2,5-diphenyl tetrazolium bromide), a tetrazolium salt, by the metabolically active cells where it is metabolized by active mitochondria into a blue colored formazan product that is read spectrophoto-metrically. MTT was dissolved in phosphate buffered saline with a pH of 7.4 to obtain an MTT concentration of 5 mg/ml; the resulting mixture was filtered through a 0.22 micron filter to sterilize and remove a small amount of insoluble residue. For each type of tumor cell, 20,000 to 50,000 cells were seeded in a 96-well culture plate and incubated with the formulation or standard in a CO2 incubator for […]. […] The assay was terminated after 72 hours by adding 100 ug (20 ul) of MTT to each well, then incubating for additional one hour, and finally adding 50 ul of 10% SDS-0.01N HCl to each well to lyse the cells and dissolve formazan. After incubating for one hour, the plate was read spectrophoto-metrically at 540 nm and the percentage cytotoxicity calculated.

[2] = system: PTC Colon; experiment: three day MTT cytotoxicity assay, PTC; format: cell-based, human; conditions: Standard (DMSO control), 72 hours
Experimental: as §1

[3] = system: L132 Lung; experiment: three day MTT cytotoxicity assay, L132; format: cell-based, human; conditions: Standard (DMSO control), 72 hours
Experimental: as §1

[4] = system: U87MG Glioblastoma; experiment: three day MTT cytotoxicity assay, U87MG; format: cell-based, human; conditions: Standard (DMSO control), 72 hours
Experimental: as §1

[5] = system: DU145 Prostate; experiment: three day MTT cytotoxicity assay, DU145; format: cell-based, human; conditions: Standard (DMSO control), 72 hours
Experimental: as §1

[6] = system: Miapaca2 Pancreas; experiment: three day MTT cytotoxicity assay, Miapaca2; format: cell-based, human; conditions: Standard (DMSO control), 72 hours
Experimental: as §1

[7] = system: KB Oral; experiment: three day MTT cytotoxicity assay, KB; format: cell-based, human; conditions: Standard (DMSO control), 72 hours
Experimental: as §1

[8] = system: sarcoma 180 cells; conditions: injected into mice along with sarcoma 180 cells; cited from earlier work
[9] = system: sarcoma tumor; conditions: in vivo; cited from earlier work

Structure (SMILES)	ED50 of cytotoxicity [1] [µM]	ED50 of cytotoxicity [2] [µM]	ED50 of cytotoxicity [3] [µM]	ED50 of cytotoxicity [4] [µM]	ED50 of cytotoxicity [5] [µM]	ED50 of cytotoxicity [6] [µM]	ED50 of cytotoxicity [7] [µM]	tumor development [8]	sarcoma tumor growth [9]
CC(=O)OC(C(C)=O)N1C(=O)CCC1C(=O)OCc1ccccc1 (centres unmarked) [MGC7]	1500 ± 200	2400 ± 500	>5000	1840 ± 600	850 ± 300	2400 ± 1000	1850 ± 600	–	–
CCOC(=O)C1CCC(=O)N1C(O)C(C)=O (centres unmarked) [MGC4]	1500 ± 200	3800 ± 1100	>5000	2400 ± 500	1800 ± 300	4200 ± 1100	1550 ± 300	–	–
COC(=O)C1CCC(=O)N1C(O)C(C)=O (centres unmarked) [MGC1]	1500 ± 400	3700 ± 1400	>5000	2250 ± 500	1700 ± 600	4200 ± 1300	1700 ± 500	–	–
CC(=O)C=O [Methylglyoxal, 2-oxopropanal]	–	–	–	–	–	–	–	no tumor developed	significantly inhibited
